Laboratory results: ChEMBL document CHEMBL6120962, “New Mitochondria-Targeted Fisetin Derivative Compromises Mitophagy and Limits Survival of Drug-Induced Senescent Breast Cancer Cells” (J Med Chem, 2024)
Active and inactive are the calls of the source. The calls are words filed in the database; no cut-off is given here.

What was measured:
HCC1428 [1] = test: Induction of mitochondrial dysfunction in tamoxifen-induced senescent human HCC1428 cells assessed as increase in proton leak at 5 uM incubated for 6 hrs by real-time analysis; format: functional, cell-based
HCC1428 [2] = test: Induction of senescence in human HCC1428 cells assessed as […] in beta-galactosidase activity at 5 uM incubated for 24 hrs by immunostaining based imaging cytometric analysis; format: functional, cell-based
ZR-75-30 [3] = test: Induction of […] in human tamoxifen-induced senescent human ZR-75-30 cells at 1 to 5 uM by incubated for 24 hrs Annexin V-FITC staining based flow cytometric analysis; format: functional, cell-based; conditions: dose 1-5 µM
ZR-75-30 [4] = test: Induction of oxidative stress in tamoxifen-induced senescent human ZR-75-30 cells assessed as increase in cytosolic SOD1 level at 1 to 5 uM incubated for 24 hrs by MitoSOX red superoxide indicator based fluorescence analysis; format: functional, cell-based; conditions: dose 1-5 µM
[5] = biological target: Apoptosis regulator Bcl-2 (Homo sapiens) (UniProt P10415); test: Binding affinity to recombinant human Bcl-2 assessed as interaction by measuring decrease in chemiluminescence signal at 0.01 to 5 uM incubated overnight by dot-blot analysis; conditions: dose 0.01-5 µM
Apoptosis regulator Bcl-2 (Homo sapiens), sequence (P10415 whole entry): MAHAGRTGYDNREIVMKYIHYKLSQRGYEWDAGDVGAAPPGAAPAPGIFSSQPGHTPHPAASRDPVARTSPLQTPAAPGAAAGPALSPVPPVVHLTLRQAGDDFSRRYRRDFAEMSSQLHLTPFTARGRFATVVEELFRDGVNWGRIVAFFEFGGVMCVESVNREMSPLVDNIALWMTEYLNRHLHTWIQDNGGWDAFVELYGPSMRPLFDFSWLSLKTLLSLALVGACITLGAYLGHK

ZR-75-30 [6] = test: Induction of apoptosis in human ZR-75-30 cells assessed as decrease in Bcl2 level at 1 to 5 uM incubated for 24 hrs by Western blot analysis; format: functional, cell-based; conditions: dose 1-5 µM
HCC1428 [7] = test: Induction of mitochondrial dysfunction in human HCC1428 cells assessed as increase in proton leak at 5 uM incubated for 6 hrs by real time analysis; format: functional, cell-based
MCF7 = test: Antitumor activity against ER-positive human MCF7 cells xenografted in Danio rerio embryo assessed as decrease in tumor size at 1 to 5 uM administered for 48 hrs by imaging analysis; format: functional, cell-based; conditions: dose 1-5 µM
HCC1428 [8] = test: Induction of apoptosis in human HCC1428 cells assessed as decrease in Bcl2 level at 1 to 5 uM incubated for 24 hrs by Western blot analysis; format: functional, cell-based; conditions: dose 1-5 µM
CAMA-1 [9] = test: Induction of apoptosis in tamoxifen-induced senescent human CAMA-1 cells assessed as phosphatidylserine externalization at 1 to 5 uM incubated for 24 hrs by Annexin V-FITC staining based flow cytometric analysis; format: functional, cell-based; conditions: dose 1-5 µM
HCC1428 [10] = test: Effect on phosphorylated to unphosphorylated AKT ratio in tamoxifen-induced senescent human HCC1428 cells assessed as decrease in phosphorylated AKT level at 1 to 5 uM incubated for 24 hrs by Western blotting analysis; format: functional, cell-based; conditions: dose 1-5 µM
CAMA-1 [11] = test: Induction of apoptosis in human CAMA-1 cells assessed as decrease in Bcl2 level at 1 to 5 uM incubated for 24 hrs by Western blot analysis; format: functional, cell-based; conditions: dose 1-5 µM
HCC1428 [12] = test: Induction of autophagy in tamoxifen-induced senescent human HCC1428 cells assessed as increase in ULK1 level at 1 to 5 uM by immunostaining based imaging cytometric analysis; format: functional, cell-based; conditions: dose 1-5 µM
HCC1428 [13] = test: Induction of autophagosome formation in tamoxifen-induced senescent human HCC1428 cells assessed as increase in LC3B level at 1 to 5 uM by immunostaining based imaging cytometric analysis; format: functional, cell-based; conditions: dose 1-5 µM
Mitochondrial membrane [14] = test: Induction of mitochondrial membrane potential depolarization in human HCC1500 cells at 1 uM incubated for 24 hrs by 7-AAD staining based flow cytometric analysis; format: cell membranes
HCC1428 [15] = test: Induction of mitochondrial dysfunction in human HCC1428 cells assessed as decrease in spare respiratory capacity at 5 uM incubated for 6 hrs by real time analysis; format: functional, cell-based
MCF-10F [16] = test: Induction of apoptosis in human MCF-10F cells assessed as decrease in Bcl2 level at 1 to 5 uM incubated for 24 hrs by Western blot analysis; format: functional, cell-based; conditions: dose 1-5 µM
Mitochondrial membrane [17] = test: Induction of mitochondrial membrane potential depolarization in tamoxifen-induced senescent human CAMA-1 cells assessed as increase in depolarized dead cell level at 1 to 5 uM incubated for 24 hrs by 7-AAD staining based flow cytometric analysis; format: cell membranes; conditions: dose 1-5 µM
HCC1428 [18] = test: Induction of apoptosis in human HCC1428 cells assessed as decrease in AKT level at 1 to 5 uM incubated for 24 hrs by Western blotting analysis; format: functional, cell-based; conditions: dose 1-5 µM
ZR-75-30 [19] = test: Anticancer activity against ER-positive human ZR-75-30 cells assessed as effect on metabolic activity upto 10 uM incubated for 24 hrs by MTT assay; format: functional, cell-based
Mitochondrial membrane [20] = test: Induction of mitochondrial membrane potential depolarization in human HCC1428 cells assessed as increase in fraction of depolarized dead cells at 5 uM incubated for 24 hrs by 7-AAD staining based flow cytometric analysis; format: cell membranes
HCC1428 [21] = test: Induction of mitochondrial dysfunction in tamoxifen-induced senescent human HCC1428 cells assessed as decrease in spare respiratory capacity at 5 uM incubated for 6 hrs by real-time analysis; format: functional, cell-based
HCC1428 [22] = test: Induction of apoptosis in tamoxifen-induced senescent human HCC1428 cells assessed as decrease in phosphorylated AKT level at 1 to 5 uM incubated for 24 hrs by Western blotting analysis; format: functional, cell-based; conditions: dose 1-5 µM
HCC1428 [23] = test: Induction of apoptosis in tamoxifen-induced senescent human HCC1428 cells assessed as increase in caspase 9 level incubated for 24 hrs by immunostaining based imaging cytometric analysis; format: functional, cell-based
HCC1428 [24] = test: Induction of ubiquitin-dependent mitophagy in tamoxifen-induced senescent human HCC1428 cells assessed as increase in parkin level at 5 uM by immunostaining based imaging cytometric analysis; format: functional, cell-based
Mitochondrial membrane [25] = test: Induction of mitochondrial membrane potential depolarization in tamoxifen-induced senescent human HCC1500 cells assessed as increase in depolarized dead cell level at 1 to 5 uM incubated for 24 hrs by 7-AAD staining based flow cytometric analysis; format: cell membranes; conditions: dose 1-5 µM
[26] = biological target: T1, Mixed lineage kinase domain-like protein (Homo sapiens) (UniProt Q8NB16); test: Induction of MLKL phosphorylation in human HCC1428 cells at 1 to 5 uM incubated for 24 hrs by Western blot analysis; format: cell-based; conditions: dose 1-5 µM
T1 sequence (whole entry): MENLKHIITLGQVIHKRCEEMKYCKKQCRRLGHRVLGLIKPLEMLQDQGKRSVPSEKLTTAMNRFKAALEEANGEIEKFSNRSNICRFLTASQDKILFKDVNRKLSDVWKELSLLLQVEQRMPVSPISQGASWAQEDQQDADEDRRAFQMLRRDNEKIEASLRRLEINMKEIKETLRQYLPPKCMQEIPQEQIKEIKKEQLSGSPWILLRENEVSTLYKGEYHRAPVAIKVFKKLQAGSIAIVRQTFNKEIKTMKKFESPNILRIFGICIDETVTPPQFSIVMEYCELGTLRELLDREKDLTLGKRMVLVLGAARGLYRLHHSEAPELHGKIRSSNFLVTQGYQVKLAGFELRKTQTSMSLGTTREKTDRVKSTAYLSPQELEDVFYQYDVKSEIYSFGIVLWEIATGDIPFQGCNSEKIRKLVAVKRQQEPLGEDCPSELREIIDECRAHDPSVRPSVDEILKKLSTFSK

Mitochondrial membrane [27] = test: Induction of mitochondrial membrane potential depolarization in human MCF-10F cells at 5 uM incubated for 24 hrs by 7-AAD staining based flow cytometric analysis; format: cell membranes
MCF-10F [28] = test: Induction of mitochondrial dysfunction in tamoxifen-induced senescent human MCF-10F cells assessed as increase in proton leak at 5 uM incubated for 6 hrs by real-time analysis; format: functional, cell-based
Mitochondrial membrane [29] = test: Induction of mitochondrial membrane potential depolarization in human HCC1428 cells at 1 uM incubated for 24 hrs by 7-AAD staining based flow cytometric analysis; format: cell membranes

CC(=O)Oc1ccc2c(=O)c(OCCCC[P+](c3ccccc3)(c3ccccc3)c3ccccc3)c(-c3ccc4c(c3)OC(c3ccccc3)(c3ccccc3)O4)oc2c1.[I-]
Activity (HCC1428 [1]): Active | Activity (HCC1428 [2]): Active; Most Pronounced Effect Observed | Activity (ZR-75-30 [3]): Active | Activity (ZR-75-30 [4]): Active | Activity [5]: Active | Activity (ZR-75-30 [6]): Active | Activity (HCC1428 [7]): Active | Activity (MCF7): Active | Activity (HCC1428 [8]): Active | Activity (CAMA-1 [9]): Active | Activity (HCC1428 [10]): inactive | Activity (CAMA-1 [11]): Active | Activity (HCC1428 [12]): Active | Activity (HCC1428 [13]): inactive | Activity (Mitochondrial membrane [14]): Active | Activity (HCC1428 [15]): Active | Activity (MCF-10F [16]): inactive | Activity (Mitochondrial membrane [17]): Active | Activity (HCC1428 [18]): Active | Activity (ZR-75-30 [19]): Active | Activity (Mitochondrial membrane [20]): Active | Activity (HCC1428 [21]): Active | Activity (HCC1428 [22]): Active | Activity (HCC1428 [23]): Active | Activity (HCC1428 [24]): Active | Activity (Mitochondrial membrane [25]): Active | Activity [26]: inactive | Activity (Mitochondrial membrane [27]): inactive | Activity (MCF-10F [28]): inactive | Activity (Mitochondrial membrane [29]): Active
